In brackets after ≈: the same amount, converted by molar mass. *1 amine or outer side, *2 acyl side, *3 side chain or, on linkers, in order; H or OH if unused. Where a SMILES comes first, the peptide text is derived from it. Bridges are numbered along the chain shown (N, C = ends). [ ]: non-standard residue; d: D form. The star is where a group is joined. Butanoyl(4-OPh) = O=C(CCCOc1ccccc1)*; NH(2-ClPh) = Clc1ccccc1N*; dDab = NCC[C@@H](N)C(=O)O; Octanoyl = CCCCCCCC(=O)*; Dab = NCC[C@H](N)C(=O)O; CO = O=C([*:1])[*:2]
What was measured:
[1] = in vitro; conditions: human
Method: (§1) All compounds synthesised in this study were assessed for their minimum inhibitory concentrations (MIC, mg/L) by broth microdilution assay against five antibiotic-sensitive and resistant ATCC reference strains covering the Gram-negative ESKAPE pathogens (Escherichia coli, Klebsiella pneumoniae, A. baumannii, and P. aeruginosa) (Table 1, Table 2 and Table 3). Staphylococcus aureus was also included as a representative Gram-positive bacterial strain. […] Polymyxin B 1, colistin 2, vancomycin and gentamicin were used as positive inhibitor comparator compounds. Compounds were counter-screened against human proximal tubular epithelial cells (HK-2), using LDH release as a general indicator of cellular toxicity.
Cytotoxicity to human kidney proximal tubular epithelial cell line, HK-2 (ATCC CRL-2190, sourced from ATCC; Manassas, VA, USA) was determined using the LDH assay as previously described. In brief, HK-2 cells were seeded as 2000 cells/well in black-walled clear bottom 384-well tissue culture treated plates (Corning, catalogue No. 3712) in DMEM/F12 medium (Gibco® 10565-042) containing 10% of Fetal Bovine Serum (FBS, Gibco® 10099-141) and incubated for 24 h at 37 °C, 5% CO2. Compounds were then added into each well with a concentration series from 300 µM to 2.3 µM in 2-fold dilutions. Colistin and polymyxin B were used as controls and tested at a final concentration range of 1 mM to 7.8 µM. The cells were incubated with the compounds for 24 h at 37 °C, 5% CO2. After the incubation, 5 µL of culture medium was added to 45 µL of LDH assay buffer (Biovision, K313-500) and incubated for 30 min at room temperature. The absorbance (ABS) was then read at 450 nm using a Polar Star Omega plate reader. The data was analysed by Prism 6 software (GraphPad Software, La Jolla, CA, USA). Results were calculated using the following equation: cytotoxicity %= (ABSsamples − ABSuntreated/ABS1%Triton X-100 − ABSuntreated) × 100.

[2] = tested on: P. aeruginosa ATTC 27853; assay: microbe, parasite or virus in culture
Method: as §1

[3] = tested on: S. aureus ATCC 25923; assay: microbe, parasite or virus in culture
Method: as §1

[4] = tested on: A. baumannii ATCC 19606; assay: microbe, parasite or virus in culture
Method: as §1

[5] = tested on: K. pneumoniae ATCC 700603; assay: microbe, parasite or virus in culture
Method: as §1

[6] = tested on: K. pneumoniae ATCC 13833; assay: microbe, parasite or virus in culture
Method: as §1

[7] = tested on: E. coli ATCC 25922; assay: microbe, parasite or virus in culture
Method: as §1

[8] = tested on: K. pneumoniae BAA 2146; assay: microbe, parasite or virus in culture
Method: as §1

[9] = tested on: P. aeruginosa FADDI PA070; assay: microbe, parasite or virus in culture
Method: as §1

| SMILES | CC50 at 24 h [1] [µM] | MIC P. aeruginosa ATTC 27853 ([2]; ATTC 27853, 18 h) [mg/L] | MIC S. aureus ATCC 25923 ([3]; ATCC 25923, 18 h) [mg/L] | MIC A. baumannii ATCC 19606 ([4]; ATCC 19606, 18 h) [mg/L] | MIC K. pneumoniae ATCC 700603 ([5]; ATCC 700603, 18 h) [mg/L] | MIC K. pneumoniae ATCC 13833 ([6]; ATCC 13833, 18 h) [mg/L] | MIC E. coli ATCC 25922 ([7]; ATCC 25922, 18 h) [mg/L] | MIC K. pneumoniae BAA 2146 ([8]; BAA 2146, 18 h) [mg/L] | MIC P. aeruginosa FADDI PA070 ([9]; FADDI PA070, 18 h) [mg/L] | also measured |
| --- | --- | --- | --- | --- | --- | --- | --- | --- | --- | --- |
| CC(C)C[C@@H]1NC(=O)[C@@H](Cc2ccccc2)NC(=O)[C@H](CCN)NC(=O)[C@@H](NC(=O)[C@@H](CCN)NC(=O)[C@@H](NC(=O)CCCOc2ccccc2)[C@@H](C)O)CCNC(=O)[C@H]([C@@H](C)O)NC(=O)[C@H](CCN)NC(=O)[C@H](CCN)NC1=O [Compound 26] ({Butanoyl(4-OPh)}-T[dDab][Dab][Dab][dF]L[Dab][Dab]T; lactam 3-C) | > 300 | 2 (≈ 1.78 µM) | >32 | 16 (≈ 14.2 µM) | 1 (≈ 0.889 µM) | 4 (≈ 3.55 µM) | 1 (≈ 0.889 µM) | 1 (≈ 0.889 µM) | >32 | – |
| CC(C)C[C@@H]1NC(=O)[C@@H](Cc2ccccc2)NC(=O)[C@H](CCN)NC(=O)[C@@H](NC(=O)[C@@H](CCN)NC(=O)[C@@H](NC(=O)Nc2ccccc2Cl)[C@@H](C)O)CCNC(=O)[C@H]([C@@H](C)O)NC(=O)[C@H](CCN)NC(=O)[C@H](CCN)NC1=O [Compound 22] ({NH(2-ClPh)-CO}-T[dDab][Dab][Dab][dF]L[Dab][Dab]T; lactam 3-C) | > 300 | – | – | – | – | – | – | – | – | MIC P. aeruginosa ATTC 27853 ([2]; broth microdilution, 18 h): 2 mg/L (≈ 1.79 µM); MIC S. aureus ATCC 25923 ([3]; Gram-positive strain, broth microdilution, 18 h): >32 mg/L; MIC A. baumannii ATCC 19606 ([4]; broth microdilution, 18 h): >32 mg/L; MIC K. pneumoniae ATCC 700603 ([5]; ESBL strain, broth microdilution, 18 h): 16 mg/L (≈ 14.3 µM); MIC K. pneumoniae ATCC 13833 ([6]; broth microdilution, 18 h): 16 mg/L (≈ 14.3 µM); MIC E. coli ATCC 25922 ([7]; broth microdilution, 18 h, 37 °C): 16 mg/L (≈ 14.3 µM); MIC K. pneumoniae BAA 2146 ([8]; NDM-1 positive strain, broth microdilution, 18 h): 16 mg/L (≈ 14.3 µM); MIC P. aeruginosa FADDI PA070 ([9]; Pmx-resistant clinical isolate, broth microdilution, 18 h): >32 mg/L |
| CCCCCCCC(=O)NCC(=O)N[C@H](CCN)C(=O)N[C@H]1CCNC(=O)[C@H]([C@@H](C)O)NC(=O)[C@H](CCN)NC(=O)[C@H](CCN)NC(=O)[C@H](CC(C)C)NC(=O)[C@@H](Cc2ccccc2)NC(=O)[C@H](CCN)NC1=O [Compound 33] (Octanoyl-G[dDab][Dab][Dab][dF]L[Dab][Dab]T; lactam 3-C) | 262 | 1 (≈ 0.957 µM) | >32 | >32 | 32 (≈ 30.6 µM) | >32 | 16 (≈ 15.3 µM) | >32 | >32 | – |
| CCCCCCCC(=O)N[C@@H](CCN)C(=O)N[C@H](C(=O)N[C@H](CCN)C(=O)N[C@H]1CCNC(=O)[C@H]([C@@H](C)O)NC(=O)[C@H](CCN)NC(=O)[C@H](CCN)NC(=O)[C@H](CC(C)C)NC(=O)[C@@H](Cc2ccccc2)NC(=O)[C@H](CCN)NC1=O)[C@@H](C)O [Compound 20] (Octanoyl-[Dab]T[dDab][Dab][Dab][dF]L[Dab][Dab]T; lactam 4-C) | 183 | 2 (≈ 1.68 µM) | – | – | 1 (≈ 0.841 µM) | 0.5 (≈ 0.42 µM) | – | 4 (≈ 3.36 µM) | >32 | – |
| CNC(C)C1CCC(N)C(OC2C(N)CC(N)C(OC3OCC(C)(O)C(NC)C3O)C2O)O1 (centres unmarked) [Gent, gentamicin, reference compound] | > 300 | – | – | – | – | – | – | – | – | MIC ([2]; Pseudomonas aeruginosa, ATTC27853, 18 h, read-out: MIC P. aeruginosa ATTC 27853): > 32 µg/mL; MIC ([3]; Staphylococcus aureus, ATCC25923, 18 h, read-out: MIC S. aureus ATCC 25923): 0.5 µg/mL (≈ 1.05 µM); MIC ([4]; Acinetobacter baumannii, ATCC19606, 18 h, read-out: MIC A. baumannii ATCC 19606): 32 µg/mL (≈ 67 µM); MIC ([5]; Klebsiella pneumoniae, ATCC700603, 18 h, read-out: MIC K. pneumoniae ATCC 700603): 8 µg/mL (≈ 16.8 µM); MIC ([6]; Klebsiella pneumoniae, ATCC13833, 18 h, read-out: MIC K. pneumoniae ATCC 13833): 0.25 µg/mL (≈ 0.523 µM); MIC ([8]; Klebsiella pneumoniae, BAA2146, 18 h, read-out: MIC K. pneumoniae BAA 2146): > 32 µg/mL; MIC ([9]; Pseudomonas aeruginosa, FADDIPA070, 18 h, read-out: MIC P. aeruginosa FADDI PA070): 32 µg/mL (≈ 67 µM) |
